Holding throughout (assay type): cell-based
The subject of test [1] is Acinetobacter baumannii ATCC 17978. The settings on record: ATCC 17978. As to the method: (§1) MICs of the lipopeptides (trifluoroacetic acid salt, TFA) were determined by broth microdilution in cation-adjusted Mueller-Hinton broth (CAMHB) (Oxoid Australia, Thebarton, SA, Australia) according to the Clinical and Laboratory Standards Institute protocol (Clinical and Laboratory Standards Institute, Performance standards for antimicrobial susceptibility testing; twentyforth informational supplement M100-S24. Wayne, Pa., 2014). Polymyxin B sulphate was employed as the control. Antimicrobial activity of Compounds 1-104 against polymyxin-susceptible Gram-negative bacteria was examined. The following isolates were examined: Pseudomonas aeruginosa ATCC 27853, Pseudomonas aeruginosa FADDI-PA022*, Pseudomonas aeruginosa FADDI-PA01*, Pseudomonas aeruginosa FADDI-PA038*, Acinetobacter baumannii FADDI-AB034*, Acinetobacter baumannii ATCC 17978, Acinetobacter baumannii FADDI-AB030*, Klebsiella pneumoniae FADDI-KP032, Klebsiella pneumoniae FADDI-KP022*, Klebsiella pneumoniae Kp BM1*, Enterobacter cloacae FADDI-EC006, Enterobacter cloacae FADDI-EC001, and Enterobacter cloacae FADDI-EC003 (* Multi drug-resistant clinical isolates, § New Delhi Metallo-beta-lactamase-1 (NDM-1) producing). The results are illustrated in Tables 4 and 5.

Test [2] concerns Acinetobacter baumannii FADDI-AB034. The settings on record: FADDI-AB034. As to the method: as §1
In test [3] the test system is Enterobacter cloacae FADDI-EC001. The settings on record: FADDI-EC001. On the procedure: as §1
The subject of test [4] is Enterobacter cloacae FADDI-EC003. Conditions: FADDI-EC003. On the procedure: as §1
Test [5] has as its system Enterobacter cloacae FADDI-EC006. The settings on record: FADDI-EC006. As to the method:
as §1

The subject of test [6] is Klebsiella pneumoniae FADDI-KP022. Conditions: FADDI-KP022. On the procedure: as §1
In test [7] the test system is Klebsiella pneumoniae FADDI-KP032. The settings on record: FADDI-KP032. As to the method:
as §1

The test system of test [8] is Klebsiella pneumoniae Kp BM1. Conditions: Kp BM1. On the procedure: as §1
Test [9] deals with Pseudomonas aeruginosa ATCC 27853. Conditions: ATCC 27853. As to the method:
as §1

Test [10] relates to Pseudomonas aeruginosa FADDI-PA01. Conditions: FADDI-. On the procedure: as §1
The test system of test [11] is Pseudomonas aeruginosa FADDI-PA022. The settings on record: FADDI-PA022. On the procedure: as §1
Test [12] concerns Pseudomonas aeruginosa FADDI-PA038. Conditions: FADDI-PA038. As to the method:
as §1

Test [13] relates to Acinetobacter baumannii FADDI-AB030. As to the kind of experiment: microbe, parasite or virus in culture. The settings on record: FADDI-AB030. On the procedure:
as §1, with “Antimicrobial activity of Compounds 1-104 against polymyxin-susceptible Gram-negative bacteria was examined.” left out, “5. […]” for “5.”

≈ marks a conversion by molar mass, not a printed value. Where a SMILES comes first, the peptide text is derived from it. Bridges are numbered along the chain shown (N, C = ends). [ ]: non-standard residue; d: D form. The star is where a group is joined. X41 = O=C(c1cc2cc(F)c(F)cc2[nH]1)*; X16 = O=C(c1cnc(-c2ccccc2)nc1)*; X11 = Cn1nc(C(=O)*)c2ccccc21; X1 = O=C(c1ncc(Cl)cc1Cl)*; Dab = NCC[C@H](N)C(=O)O; X60 = O=C(c1cnc(Br)s1)*; Abu = CC[C@H](N)C(=O)O; Dap = NC[C@H](N)C(=O)O; X31 = O=C(c1ncccc1Cl)* Where only a bound is given, the exact number is not on record here.

In the case of `CC[C@@H]1NC(=O)[C@@H](CC(C)C)NC(=O)[C@H](CCN)NC(=O)[C@@H](NC(=O)[C@H](CN)NC(=O)[C@@H](NC(=O)[C@H](CCN)NC(=O)c2cnc(-c3ccccc3)nc2)[C@@H](C)O)CCNC(=O)[C@H]([C@@H](C)O)NC(=O)[C@H](CCN)NC(=O)[C@H](CCN)NC1=O` [Compound 73] (X16-[Dab]T[Dap][Dab][Dab][dL][Abu][Dab][Dab]T; lactam 4-C), the Minimum inhibitory concentration in [1] is 0.5 µg/mL (≈ 0.428 µM); in [2], 0.5 µg/mL (≈ 0.428 µM); in test [3], below 0.125 µg/mL; in test [4] it was 0.5 µg/mL (≈ 0.428 µM); in [5] it was 1 µg/mL (≈ 0.855 µM); in test [6] it was below 0.125 µg/mL. Further, the Minimum inhibitory concentration was below 0.125 µg/mL in test [7]; below 0.125 µg/mL in test [8]; 0.5 µg/mL (≈ 0.428 µM) in test [9]; 0.5 µg/mL (≈ 0.428 µM) in [10]; 0.5 µg/mL (≈ 0.428 µM) in test [11]; 2 µg/mL (≈ 1.71 µM) in [12]. Besides, the Minimum inhibitory concentration in test [13] is 0.5 µg/mL (≈ 0.428 µM).

For the compound `CC[C@@H]1NC(=O)[C@@H](CC(C)C)NC(=O)[C@H](CCN)NC(=O)[C@@H](NC(=O)[C@H](CN)NC(=O)[C@@H](NC(=O)[C@H](CCN)NC(=O)c2nn(C)c3ccccc23)[C@@H](C)O)CCNC(=O)[C@H]([C@@H](C)O)NC(=O)[C@H](CCN)NC(=O)[C@H](CCN)NC1=O` [Compound 51] (X11-[Dab]T[Dap][Dab][Dab][dL][Abu][Dab][Dab]T; lactam 4-C), the Minimum inhibitory concentration in test [1] is 0.25 µg/mL (≈ 0.218 µM); in [2], 0.25 µg/mL (≈ 0.218 µM); in [3] it was below 0.125 µg/mL; in test [4], 0.25 µg/mL (≈ 0.218 µM); in [5], 0.5 µg/mL (≈ 0.437 µM); in test [6], below 0.125 µg/mL. For the same compound, the Minimum inhibitory concentration in test [7] is below 0.125 µg/mL; in test [8] it was below 0.125 µg/mL; in test [9], 0.25 µg/mL (≈ 0.218 µM); in [10], 0.25 µg/mL (≈ 0.218 µM); in [11] it was 0.25 µg/mL (≈ 0.218 µM); in [12] it was 1 µg/mL (≈ 0.873 µM). This compound returned a Minimum inhibitory concentration in [13] below 0.125 µg/mL.

In the case of `CC[C@@H]1NC(=O)[C@@H](CC(C)C)NC(=O)[C@H](CCN)NC(=O)[C@@H](NC(=O)[C@H](CN)NC(=O)[C@@H](NC(=O)[C@H](CCN)NC(=O)c2ncccc2Cl)[C@@H](C)O)CCNC(=O)[C@H]([C@@H](C)O)NC(=O)[C@H](CCN)NC(=O)[C@H](CCN)NC1=O` [Compound 36] (X31-[Dab]T[Dap][Dab][Dab][dL][Abu][Dab][Dab]T; lactam 4-C), the Minimum inhibitory concentration is 8 µg/mL (≈ 7.1 µM) in [1]; 4 µg/mL (≈ 3.55 µM) in test [2]; 0.25 µg/mL (≈ 0.222 µM) in test [3]; 0.5 µg/mL (≈ 0.444 µM) in test [4]; 2 µg/mL (≈ 1.78 µM) in test [5]; below 0.125 µg/mL in test [6]. The Minimum inhibitory concentration in test [7] turned out to be 1 µg/mL (≈ 0.888 µM); in test [8] it was 2 µg/mL (≈ 1.78 µM); in [9] it was 0.5 µg/mL (≈ 0.444 µM); in test [10], 0.5 µg/mL (≈ 0.444 µM); in test [11], 0.5 µg/mL (≈ 0.444 µM); in [12], 1 µg/mL (≈ 0.888 µM). Besides, the Minimum inhibitory concentration in test [13] is 4 µg/mL (≈ 3.55 µM).

Turning to `CC[C@@H]1NC(=O)[C@@H](CC(C)C)NC(=O)[C@H](CCN)NC(=O)[C@@H](NC(=O)[C@H](CN)NC(=O)[C@@H](NC(=O)[C@H](CCN)NC(=O)c2cnc(Br)s2)[C@@H](C)O)CCNC(=O)[C@H]([C@@H](C)O)NC(=O)[C@H](CCN)NC(=O)[C@H](CCN)NC1=O` [Compound 91] (X60-[Dab]T[Dap][Dab][Dab][dL][Abu][Dab][Dab]T; lactam 4-C), the Minimum inhibitory concentration was 2 µg/mL (≈ 1.7 µM) in test [1]; 2 µg/mL (≈ 1.7 µM) in test [2]; 0.5 µg/mL (≈ 0.425 µM) in test [3]; 1 µg/mL (≈ 0.849 µM) in [4]; 0.5 µg/mL (≈ 0.425 µM) in test [5]; below 0.125 µg/mL in [6]. Also, the Minimum inhibitory concentration in [7] is 0.5 µg/mL (≈ 0.425 µM); in test [8], 0.5 µg/mL (≈ 0.425 µM); in test [9], 0.5 µg/mL (≈ 0.425 µM); in [10], 0.5 µg/mL (≈ 0.425 µM); in test [11], 0.5 µg/mL (≈ 0.425 µM); in test [12], 1 µg/mL (≈ 0.849 µM). Also, the Minimum inhibitory concentration in [13] was found to be 1 µg/mL (≈ 0.849 µM).

On to `CC[C@@H]1NC(=O)[C@@H](CC(C)C)NC(=O)[C@H](CCN)NC(=O)[C@@H](NC(=O)[C@H](CN)NC(=O)[C@@H](NC(=O)[C@H](CCN)NC(=O)c2cc3cc(F)c(F)cc3[nH]2)[C@@H](C)O)CCNC(=O)[C@H]([C@@H](C)O)NC(=O)[C@H](CCN)NC(=O)[C@H](CCN)NC1=O` [Compound 60] (X41-[Dab]T[Dap][Dab][Dab][dL][Abu][Dab][Dab]T; lactam 4-C), for which the Minimum inhibitory concentration in test [1] turned out to be 1 µg/mL (≈ 0.857 µM); in test [2], 0.5 µg/mL (≈ 0.429 µM); in test [3] it was 0.25 µg/mL (≈ 0.214 µM); in [4], 0.25 µg/mL (≈ 0.214 µM); in test [5], 1 µg/mL (≈ 0.857 µM); in test [6] it was 0.5 µg/mL (≈ 0.429 µM). The Minimum inhibitory concentration in [7] turned out to be 0.5 µg/mL (≈ 0.429 µM); in test [8] it was 0.5 µg/mL (≈ 0.429 µM); in test [9], 0.5 µg/mL (≈ 0.429 µM); in [10], 0.5 µg/mL (≈ 0.429 µM); in [11], 0.5 µg/mL (≈ 0.429 µM); in test [12], 1 µg/mL (≈ 0.857 µM). For the same compound, the Minimum inhibitory concentration in test [13] came out at 0.5 µg/mL (≈ 0.429 µM).

On to `C[C@@H]1NC(=O)[C@@H](Cc2ccccc2)NC(=O)[C@H](CCN)NC(=O)[C@@H](NC(=O)[C@H](CN)NC(=O)[C@@H](NC(=O)[C@H](CCN)NC(=O)c2ncc(Cl)cc2Cl)[C@@H](C)O)CCNC(=O)[C@H]([C@@H](C)O)NC(=O)[C@H](CCN)NC(=O)[C@H](CCN)NC1=O` [Compound 9] (X1-[Dab]T[Dap][Dab][Dab][dF]A[Dab][Dab]T; lactam 4-C), for which the Minimum inhibitory concentration in test [1] is 2 µg/mL (≈ 1.69 µM); in [2], 2 µg/mL (≈ 1.69 µM); in test [3] it was below 0.125 µg/mL; in test [4], below 0.125 µg/mL; in test [5] it was 1 µg/mL (≈ 0.847 µM); in test [6], below 0.125 µg/mL. Also, the Minimum inhibitory concentration in test [7] came out at 0.25 µg/mL (≈ 0.212 µM); in test [8], 0.25 µg/mL (≈ 0.212 µM); in test [9], 0.25 µg/mL (≈ 0.212 µM); in [10] it was 0.25 µg/mL (≈ 0.212 µM); in test [11] it was 0.25 µg/mL (≈ 0.212 µM); in test [12], 0.5 µg/mL (≈ 0.423 µM). Moreover, the Minimum inhibitory concentration in [13] was 2 µg/mL (≈ 1.69 µM).

(Values after US11225505B2, “Antimicrobial polymyxin derivative compounds” (MONASH UNIVERSITY, priority 2015, dated 2022).)
